Laboratory results: patent US20240108654A1, “COMBINATION OF A T CELL THERAPY AND A DGK INHIBITOR” (Juno Therapeutics, Inc., priority 2021, published 2024)

Tested on: anti-CD19 CAR-expressing T cells
Test: Cytolytic activity of CAR-T cells concurrently treated during chronic stimulation, 2D re-challenge with CD19-expressing lymphoma cells
Format: cell-based, human
Conditions: concurrent treatment during chronic stimulation; 2D re-challenge with K562.CD19, Granta-519, Raji without compound; higher concentrations
Protocol: To simulate conditions of chronic stimulation, approximately 20,000 anti-CD19 CAR-expressing T cells of a combined CAR-T cell composition produced as described in Example 1 from two healthy adult donors were incubated with 30 μg/mL of plate-bound CAR-specific anti-idiotypic antibody (see, e.g., WO2018/023100) at 37° C. for a period of seven days. During this seven-day period, engineered CAR T cells were concurrently treated with Compound 17 (0.1-1000 nM) or a vehicle control added at day 0.
Stimulated CAR T cells were then re-challenged with CD19-expressing tumor cells or tumor spheroids in the absence of Compound 17, and cytolytic activity and cytokine production were assessed.
To assess cytolytic function, the stimulated CAR-T cell composition was co-cultured with various CD19-expressing lymphoma cells at a 2.5:1 effector:target ratio. The tumor cells were engineered to express NucLight Red (NLR) and tumor cell number was monitored by Incucyte®. […] Duplicate values for cell compositions manufactured from the two different healthy donors are shown.

Q: How did the “CAR-T cell cytolytic activity (tumor cell number)” value turn out when `CC[C@H]1CN([C@@H](CC)c2ccc(C(F)(F)F)cc2)[C@H](CC)CN1c1nc(=O)n(C)c2ccc(C#N)nc12` [Compound 17, 4-((2S,5R)-2,5-diethyl-4-((S)-1-(4-(trifluoromethyl)phenyl)propyl)piperazin-1-yl)-1-methyl-2-oxo-1,2-dihydropyrido[3,2-d]pyrimidine-6-carbonitrile] was run?
A: The value was “decreased the cytolytic activity”.
